# Data taken from patent US7670604B2, “Vimentin directed diagnostics and therapeutics for multidrug resistant neoplastic disease” (Aurelium Biopharma, Inc., priority 2002, dated 2010).
# “Also recorded” adds a separate entry of the source.
# Key:
# MDA cells = experiment: Induction of surface exposure of vimentin by drugs, intact cell radioimmunoassay; type: cell-based; conditions: 1 or 10 μM taxol, 1 or 10 μM doxorubicin, 0.1 or 1 μM mitoxanthrone, 12 to 16 hours
# [1] = tested on: antigen-positive E3 cell line; conditions: Krauer et al. 1992, read-out: IC50 (cytotoxicities); cited from earlier work
# lysosomal hydrolases = conditions: cited from earlier work
# [2] = Rowland et al. 1993; cited from earlier work
# E3 target cells = conditions: Pietersz et al. 1988; cited from earlier work
# [3] = tested on: hematological tumor cells; experiment: Vimentin vaccination of mice injected with hematological tumor cells; type: in vivo; conditions: mice vaccinated prior to injection of the tumor cells
compound,measurement,setting,value
CC(=O)O[C@H]1C(=O)[C@@]2(C)[C@H]([C@H](OC(=O)c3ccccc3)[C@]3(O)C[C@H](OC(=O)[C@H](O)[C@@H](NC(=O)c4ccccc4)c4ccccc4)C(C)=C1C3(C)C)[C@]1(OC(C)=O)CO[C@@H]1C[C@@H]2O [taxol],induction of surface exposure of vimentin,MDA cells,slight induction
"O=c1[nH]c(=O)n([C@H]2C[C@H](O)[C@@H](CO)O2)cc1F [FUDR, 5-fluoro-2′-deoxyuridine]",IC50,[1],0.4 nM
COc1cccc2c1C(=O)c1c(O)c3c(c(O)c1C2=O)CC(O)(C(C)=O)CC3OC1CC(NC(=O)C(CC(C)C)NC(=O)C(C)N)C(O)C(C)O1 (stereo not drawn) [Ala-Leu-Dau derivative],time for conversion back to the free drug,lysosomal hydrolases,2 h
"CC(=O)[C@]1(O)Cc2c(O)c3c(c(O)c2[C@@H](O[C@H]2C[C@H](N)[C@H](O)[C@H](C)O2)C1)C(=O)c1ccccc1C3=O [Ida, Idarubicin]",activities,[2],12 nM
same,IC50,E3 target cells,120 nM
"vimentin: purified full length murine vimentin protein used as vaccine antigen, may be given with adjuvant",tumor size versus mice not vaccinated,[3],smaller
O=C1c2c(O)ccc(O)c2C(=O)c2c(NCCNCCO)ccc(NCCNCCO)c21 [mitoxanthrone],induction of surface exposure of vimentin,MDA cells,slight induction; also recorded: most significant effect
COc1cccc2c1C(=O)c1c(O)c3c(c(O)c1C2=O)C[C@@](O)(C(=O)CO)C[C@@H]3O[C@H]1C[C@H](N)[C@H](O)[C@H](C)O1 [doxorubicin],induction of surface exposure of vimentin,MDA cells,slight induction
